{
  "source": "ChEMBL document CHEMBL1201862",
  "about": "“PubChem BioAssay data set” (2004)",
  "key": {"[1]": {"target": "Heat shock protein HSP 90-alpha (Homo sapiens, UniProt P07900)", "assay": "Luminescence-based dose response biochemical high throughput screening assay for inhibitors of the Heat Shock Protein 90 (HSP90). [Related pubchem assays: 1831 (Summary AID.), 1846 (Confirmation screen.), 1789 (Primary screen.)]"}, "[2]": {"target": "T1, Corticotropin-releasing factor receptor 2/Corticotropin-releasing factor-binding protein (Homo sapiens, UniProt P24387+Q13324)", "T1 sequence (Q13324 whole entry)": "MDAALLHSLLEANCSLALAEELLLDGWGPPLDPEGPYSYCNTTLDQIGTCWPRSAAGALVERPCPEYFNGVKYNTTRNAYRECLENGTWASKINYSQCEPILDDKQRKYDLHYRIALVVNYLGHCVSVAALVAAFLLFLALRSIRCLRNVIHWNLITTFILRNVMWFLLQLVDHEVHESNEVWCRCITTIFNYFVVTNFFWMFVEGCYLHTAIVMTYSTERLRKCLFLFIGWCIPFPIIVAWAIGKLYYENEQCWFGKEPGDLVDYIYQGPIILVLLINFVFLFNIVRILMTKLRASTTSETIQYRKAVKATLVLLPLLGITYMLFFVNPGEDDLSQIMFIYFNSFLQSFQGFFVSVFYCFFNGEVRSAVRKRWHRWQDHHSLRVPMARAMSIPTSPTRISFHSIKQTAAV", "T1 sequence (P24387 whole entry)": "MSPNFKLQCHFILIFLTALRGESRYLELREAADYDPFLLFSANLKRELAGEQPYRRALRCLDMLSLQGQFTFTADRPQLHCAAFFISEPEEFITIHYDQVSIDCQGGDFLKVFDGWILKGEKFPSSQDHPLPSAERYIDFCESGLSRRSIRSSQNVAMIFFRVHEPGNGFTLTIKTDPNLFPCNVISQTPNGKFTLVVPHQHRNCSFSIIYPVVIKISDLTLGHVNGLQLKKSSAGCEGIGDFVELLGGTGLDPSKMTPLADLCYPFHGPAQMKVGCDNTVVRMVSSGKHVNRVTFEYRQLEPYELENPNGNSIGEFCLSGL", "assay": "activators of CRF receptor 2 with binding protein – uHTS hits, confirmation (AID 602473)", "format": "functional", "conditions": "read-out: EC50_Mean"}, "Genome polyprotein": {"target": "Genome polyprotein (Hepatitis C virus, UniProt Q2Q167)", "sequence (Q2Q167 whole entry)": "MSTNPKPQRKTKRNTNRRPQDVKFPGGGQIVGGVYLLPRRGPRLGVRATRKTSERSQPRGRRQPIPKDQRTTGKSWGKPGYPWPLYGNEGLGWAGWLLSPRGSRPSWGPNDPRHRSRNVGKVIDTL", "assay": "disruption of hepatitis C core self-association – biochemical, TR-FRET, dose response (AID 2159);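 further: blocks dimerization of HCV core protein measured by TR-FRET between tagged core106 pairs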", "parameters": "species or system Hepacivirus hominis"}, "[3]": {"assay": "HIV-1 Vif–A3G interaction blockers – biochemical, TR-FRET, GST-Vif 1-94, biotin-A3G peptide, dose response retest, primary screen (AID 1117319);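 further: TR-FRET signal of purified GST-Vif binding a biotinylated A3G peptide; inhibitors lower the FRET signal by blocking Vif and A3G binding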", "format": "functional"}, "cells [4]": {"assay": "cells", "format": "functional, cell-based"}, "[5]": {"assay": "M. tuberculosis H37Rv growth inhibitors, H37Rv strain (AID 1626)", "format": "functional"}, "cells [6]": {"assay": "cells", "format": "functional, cell-based", "remark": "listed apart in the source"}, "[7]": {"assay": "A Cell Based Secondary Assay To Explore Cytotoxicity of Compounds that Sensitize Mycobacterium Tuberculosis to Beta-Lactam Antibiotics.", "format": "functional"}, "[8]": {"assay": "Luminescence Cell-Based Dose Retest to Confirm Inhibitors of Cancer Stem Cells. [Related pubchem assays (depositor defined):AID2717, AID2721]", "format": "functional", "conditions": "Homo sapiens"}, "Cytochrome P450 2C19": {"target": "Cytochrome P450 2C19 (Homo sapiens, UniProt P33261)", "sequence (P33261 whole entry)": "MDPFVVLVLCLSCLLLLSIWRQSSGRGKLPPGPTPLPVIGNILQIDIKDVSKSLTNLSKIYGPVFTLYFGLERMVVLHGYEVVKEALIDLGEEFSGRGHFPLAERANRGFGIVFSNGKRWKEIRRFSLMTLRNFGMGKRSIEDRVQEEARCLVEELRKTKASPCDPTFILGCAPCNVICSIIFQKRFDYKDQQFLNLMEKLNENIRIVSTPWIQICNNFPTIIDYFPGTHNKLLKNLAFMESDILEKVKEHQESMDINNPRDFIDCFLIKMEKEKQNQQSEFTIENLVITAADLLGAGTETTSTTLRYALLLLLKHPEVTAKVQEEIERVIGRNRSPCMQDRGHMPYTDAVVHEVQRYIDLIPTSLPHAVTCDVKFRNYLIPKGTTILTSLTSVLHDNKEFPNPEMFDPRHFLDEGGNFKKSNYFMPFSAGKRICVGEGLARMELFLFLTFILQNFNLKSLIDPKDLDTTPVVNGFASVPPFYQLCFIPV", "assay": "Cytochrome panel assay with activity outcomes. Panel member name: p450-cyp2c19 Compounds with AC50 equal or less than 10 uM are considered active", "format": "functional", "conditions": "read-out: AC50"}, "Cytochrome P450 1A2": {"target": "T2, Cytochrome P450 1A2 (Homo sapiens, UniProt P05177)", "T2 sequence (P05177 whole entry)": "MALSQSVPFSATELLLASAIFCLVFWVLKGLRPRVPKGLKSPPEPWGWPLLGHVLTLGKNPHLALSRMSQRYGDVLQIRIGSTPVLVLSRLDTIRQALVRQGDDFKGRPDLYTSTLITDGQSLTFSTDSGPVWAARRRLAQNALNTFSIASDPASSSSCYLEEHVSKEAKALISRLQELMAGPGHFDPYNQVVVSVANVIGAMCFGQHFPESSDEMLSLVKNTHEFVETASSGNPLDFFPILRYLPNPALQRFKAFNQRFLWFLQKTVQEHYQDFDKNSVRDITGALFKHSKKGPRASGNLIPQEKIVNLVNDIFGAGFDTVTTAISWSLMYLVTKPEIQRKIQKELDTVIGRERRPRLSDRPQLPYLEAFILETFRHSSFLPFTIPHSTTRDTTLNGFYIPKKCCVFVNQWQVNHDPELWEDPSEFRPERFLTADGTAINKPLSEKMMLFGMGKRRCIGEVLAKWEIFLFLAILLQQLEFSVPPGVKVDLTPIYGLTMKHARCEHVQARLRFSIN"}, "Cytochrome P450 2C9": {"target": "Cytochrome P450 2C9 (Homo sapiens, UniProt P11712)", "sequence (P11712 whole entry)": "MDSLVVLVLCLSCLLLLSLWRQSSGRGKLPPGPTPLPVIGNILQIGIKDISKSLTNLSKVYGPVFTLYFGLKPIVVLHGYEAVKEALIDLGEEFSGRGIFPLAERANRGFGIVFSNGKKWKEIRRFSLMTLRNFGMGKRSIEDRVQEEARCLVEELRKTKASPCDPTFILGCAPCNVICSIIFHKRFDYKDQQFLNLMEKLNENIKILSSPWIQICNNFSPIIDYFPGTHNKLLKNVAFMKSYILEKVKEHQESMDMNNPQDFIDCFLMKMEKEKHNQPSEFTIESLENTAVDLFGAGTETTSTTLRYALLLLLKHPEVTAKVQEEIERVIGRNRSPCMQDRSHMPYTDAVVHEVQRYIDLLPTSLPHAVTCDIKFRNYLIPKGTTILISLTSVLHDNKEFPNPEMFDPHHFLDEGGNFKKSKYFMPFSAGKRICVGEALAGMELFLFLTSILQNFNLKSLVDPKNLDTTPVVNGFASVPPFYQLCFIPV"}, "[9]": {"assay": "HGIII-sPLA2 enzyme inhibition potency – biochemical, QFRET, IC50, dose response (AID 743457);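 further: green fluorescence rise as the enzyme cleaves BODIPY PC-A2 in liposomes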"}, "[10]": {"assay": "rise of 2N DNA cells, HeLa – IC50, dose response (AID 1117349)", "format": "functional, cell-based"}, "[11]": {"assay": "CellTiter-Glo luminescence survival assay, SW480 colon tumor line, concentration-response curve, half-maximal inhibitory concentration (AID 1117338)", "format": "functional"}, "[12]": {"assay": "RKO cell viability reduction, dose response, CellTiter-Glo luminescence (AID 1117322)", "format": "functional"}, "[13]": {"assay": "cytotoxicity toward HCT116 cells – cell-based, CellTiter-Glo luminescence, IC50, dose response (AID 1117332)", "format": "functional", "conditions": "HCT-116"}, "[14]": {"assay": "SNU-C1 cell viability reduction, dose response, CellTiter-Glo luminescence (AID 1117323)", "format": "functional, cell-based"}, "[15]": {"assay": "cytotoxicity toward Colo320 cells – cell-based, CellTiter-Glo luminescence, IC50, dose response (AID 1117334)", "format": "functional", "conditions": "COLO 320"}, "[16]": {"assay": "rise of 4N DNA cells, HeLa – IC50, dose response (AID 1117351)", "format": "functional, cell-based"}, "[17]": {"assay": "cytotoxicity toward HT-29 cells – cell-based, CellTiter-Glo luminescence, IC50, dose response (AID 1117330)", "format": "functional"}, "[18]": {"assay": "Reduced DLD-1 viability, concentration-response, CellTiter-Glo luminescence (AID 1117352)", "format": "functional"}, "[19]": {"target": "T3, Mannose-6-phosphate isomerase (Homo sapiens, UniProt P34949)", "T3 sequence (P34949 whole entry)": "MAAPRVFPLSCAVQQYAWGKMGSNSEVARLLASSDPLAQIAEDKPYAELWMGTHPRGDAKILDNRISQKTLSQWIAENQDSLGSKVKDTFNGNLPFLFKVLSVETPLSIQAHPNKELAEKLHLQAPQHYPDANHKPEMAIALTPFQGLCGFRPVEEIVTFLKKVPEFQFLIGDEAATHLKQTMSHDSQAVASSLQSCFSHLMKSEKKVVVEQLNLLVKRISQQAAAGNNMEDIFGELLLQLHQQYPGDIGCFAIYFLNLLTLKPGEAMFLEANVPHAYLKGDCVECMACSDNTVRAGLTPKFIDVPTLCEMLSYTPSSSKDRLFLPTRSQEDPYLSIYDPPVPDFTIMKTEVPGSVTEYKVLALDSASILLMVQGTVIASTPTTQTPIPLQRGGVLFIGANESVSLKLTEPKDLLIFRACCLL", "assay": "MPI enzyme activity inhibition – biochemical, fluorescence intensity, coupled assay, primary screen (AID 1209)"}},
  "note": "Activity calls are given as the source filed them.",
  "data": [
    {"smiles": "Cc1ccc2oc(=O)c(/C=C(\\O)c3ccco3)nc2c1", "values": [
      {"measurement": "IC50", "setting": "[1]", "result": "5.13 µM (active)"},
      {"measurement": "EC50", "setting": "[2]", "result": "4.74 µM (active)"}
    ]},
    {"smiles": "CCCCn1c(SCC(=O)Nc2cc(C)on2)nc2ccccc2c1=O", "values": [
      {"measurement": "IC50", "setting": "Genome polyprotein", "result": "> 49.8 µM (not active)"}
    ]},
    {"smiles": "N#Cc1ccccc1NC(=O)CNc1ccc(Cl)c(C(F)(F)F)c1", "values": [
      {"measurement": "IC50", "setting": "[3]", "result": "> 100 µM (active)"}
    ]},
    {"smiles": "CCOc1ccc(/C=C/C(=O)c2ccccc2)cc1OC", "values": [
      {"measurement": "EC50", "setting": "cells [4]", "result": "> 350 µM (not active)"},
      {"measurement": "IC50", "setting": "[5]", "result": "> 100 µM (active)"},
      {"measurement": "EC50", "setting": "cells [6]", "result": "10.2 µM (active)"}
    ]},
    {"smiles": "CC(C)(C)c1ccc(OCC(=O)N/N=C/c2cc(Br)ccc2OC(=O)c2ccco2)cc1", "values": [
      {"measurement": "CC50", "setting": "[7]", "result": "15 µM (active)"},
      {"measurement": "AC50", "setting": "[8]", "result": "2.29 µM (active)"},
      {"measurement": "AC50", "setting": "Cytochrome P450 2C19", "result": "1.26 µM (inconclusive)"},
      {"measurement": "AC50", "setting": "Cytochrome P450 1A2", "result": "5.01 µM (inconclusive)"},
      {"measurement": "AC50", "setting": "Cytochrome P450 2C9", "result": "inconclusive"}
    ]},
    {"smiles": "Cc1ccc2c(c1)c1c3n2CCNC3CCC1", "note": "(centres undefined)", "values": [
      {"measurement": "IC50", "setting": "[9]", "result": "> 122 µM (inactive)"},
      {"measurement": "IC50", "setting": "[10]", "result": "> 10 µM (inactive)"},
      {"measurement": "IC50", "setting": "[11]", "result": "> 20 µM (inactive)"},
      {"measurement": "IC50", "setting": "[12]", "result": "> 20 µM (inactive)"},
      {"measurement": "IC50", "setting": "[13]", "result": "> 20 µM (inactive)"},
      {"measurement": "IC50", "setting": "[14]", "result": "2.48 µM (active)"},
      {"measurement": "IC50", "setting": "[15]", "result": "> 20 µM (inactive)"},
      {"measurement": "IC50", "setting": "[16]", "result": "> 10 µM (inactive)"},
      {"measurement": "IC50", "setting": "[17]", "result": "> 20 µM (inactive)"},
      {"measurement": "IC50", "setting": "[18]", "result": "> 20 µM (inactive)"}
    ]},
    {"smiles": "Cc1ccc(CCNC(=O)C2CCCN(S(=O)(=O)c3c(C)noc3/C=C/N(C)C)C2)cc1", "note": "(centres undefined)", "values": [
      {"measurement": "IC50", "setting": "[3]", "result": "> 100 µM (active)"}
    ]},
    {"smiles": "Cc1cc(C)cc(N2C(=O)CC(Sc3nnc[nH]3)C2=O)c1", "note": "(centres undefined)", "values": [
      {"measurement": "IC50", "setting": "[19]", "result": "> 50 µM (not active)"}
    ]}
  ]
}
